The source of these data is patent publication US11180530B2, “Salt of phenylpropionamide derivative and preparation method therefor” (priority 2017, dated 2021).

Data set [1] is classed as physicochemical. Here is the method:
Samples of the compound represented by formula (I) and acetate, hydrochloride, citrate and phosphate of the compound represented by formula (I) were respectively placed open and evenly spread, so that the stability of the samples were investigated under the conditions of room temperature, heating (40° C., 60° C.), illumination (4500Lux) and high humidity (RH75% and RH90%). The sampling period is 20 days.

The format of data set [2] is physicochemical. The note with it: for Long-term stability (conclusion in words): with/without nitrogen protection, amorphous samples. Here is the method:
Samples of acetate, hydrochloride, citrate and phosphate of the compound represented by formula (I) were subjected to a long-term accelerated stability investigation for 6 months under dark and sealed conditions (the inner package is a medicinal low-density polyethylene composite film and the outer package is aluminum foil), humidity (60% RH), temperature (4° C., 25° C.) and with/without nitrogen protection.

The subject of data set [3] is inflammatory pain induced by carrageenan in rats. In words: Carrageenan inflammatory pain model, plantar tenderness (Electronic Von Frey). In kind it is in vivo, Wistar rats. The note with it: for tenderness threshold: 30 min before test, model group 7.6 g. Here is the method: Male Wistar rats for experiment purchased from Shanghai Slack Experimental Animal Co, Ltd. (Shanghai, China, certificate No. 2015000513408, license SOCK (Shanghai) 2012-0002, 150-180 g at the time of purchase, 5 rats/cage, 12/12 hour light/dark cycle adjustment, constant temperature of 23±1° C., humidity of 50-60%, free intake of water. After the animals were purchased, they were reared for more than 7 days to start the experiment.
1% λ-carrageenan mixed with physiological saline and stirred overnight, forming a jelly suspension.
The experimental method was improved according to the method in document 1 (Kazunari Nakao et al.). Before the inflammatory pain experiment, rats were randomly divided into the following groups according to body weight: blank control group, model group, 0.1 mg/kg group and 0.3 mg/kg group. There were 8 rats in each group. Inflammatory pain model was established by subcutaneous injection of 1% carrageenan (100 μl) into the foot pad of Wistar rats. After 4 hours, the rats were tested for plantar tenderness to evaluate their mechanical pain threshold, the rats were administrated single caudal vein administration (1 ml/kg) 30 min before the test, and the control group and model group were given the corresponding solvents.
Electronic Von Frey: UGO BASILE, type 38450.
The experimental data were expressed by Mean±standard deviation (S.D.). Statistical comparison was carried out with Excel software T test.

Data set [4] in a line: Canine pharmacokinetic test, intravenous administration. In kind it is in vivo. Particulars: Beagle dogs. The source says:
Beagle dogs were used as test animals, and LC/MS/MS methods were used to determine the drug concentration in plasma of Beagle dogs at different time points after intravenous administration of the compound represented by formula (I). To study the pharmacokinetic behavior of the compound of the present invention in Beagle dogs and evaluate its pharmacokinetic characteristics.
3 male beagle dogs provided by Medicilon Pharmaceutical Technology (Shanghai) Co, Ltd in each group.
A proper amount of sample was weighted and 100% normal saline was added for dissolution.
Beagle dogs 3, male, for one group; intravenous administration with a volume of 2 ml/kg after fasting for one night.
For the intravenous administration group, 1.0 ml of blood was collected from jugular vein before and 5 mins, 15 mins, 0.5, 1.0, 2.0, 4.0, 8.0, 12.0, 24.0 hrs after administration, then placed in a heparinized test tube, centrifuged at 3500 rpm for 10 mins to separate plasma, and stored at −80° C.
LC/MS/MS method was used to determine the content of compound in Beagle dog plasma after intravenous administration.

Data set [5] can be described thus: Solubility (salt formation research). Format: physicochemical.
Setting [6] is: 6 months, 4° C., 25° C., 60% RH.
The mark [7] stands for this setting: 25° C., 60% RH, nitrogen protection, 1 month.
Setting [8] is: 25° C., 60% RH, nitrogen protection, 3 months.
The mark [9] stands for this setting: 25° C., 60% RH, nitrogen protection, 6 months.
The mark [10] stands for this setting: 25° C., 60% RH, nitrogen protection, initial.

The structures appear in SMILES notation. Read-outs that look alike come from different tables or passages of the source. Where a SMILES comes first, the peptide text is derived from it. [ ]: non-standard residue; d: D form. The star is where a group is joined. Gly(N-(2R-Ph-propyl)) = C[C@@H](CNCC(=O)O)c1ccccc1; Piperidin1yl(4-NH2,4-COOH) = NC1(C(=O)O)CCN(*)CC1

Regarding `CC(C)C[C@@H](NC(=O)[C@@H](Cc1ccccc1)NC(=O)CNC[C@H](C)c1ccccc1)C(=O)N[C@H](CCCCN)C(=O)N1CCC(N)(C(=O)O)CC1` [Phosphate (1:3)] (H-[Gly(N-(2R-Ph-propyl))][dF][dL][dK]-{Piperidin1yl(4-NH2,4-COOH)}), the “Stability (conclusion in words)” value in data set [1] (illumination and high temperature, 20 days) is recorded as “relatively stable or slightly degraded”. The “Long-term stability (conclusion in words)” value in data set [2] (setting [6]) is given as “stable”.

Turning to `CC(C)C[C@@H](NC(=O)[C@@H](Cc1ccccc1)NC(=O)CNC[C@H](C)c1ccccc1)C(=O)N[C@H](CCCCN)C(=O)N1CCC(N)(C(=O)O)CC1` [Acetate (1:1)] (H-[Gly(N-(2R-Ph-propyl))][dF][dL][dK]-{Piperidin1yl(4-NH2,4-COOH)}), in data set [1] (illumination, 40° C., 60° C.), the “Stability (conclusion in words)” value is recorded as “degraded varying degrees”. Also, in data set [2] (setting [6]), the “Long-term stability (conclusion in words)” value is given as “stable”.

On to `CC(C)C[C@@H](NC(=O)[C@@H](Cc1ccccc1)NC(=O)CNC[C@H](C)c1ccccc1)C(=O)N[C@H](CCCCN)C(=O)N1CCC(N)(C(=O)O)CC1` [Embodiment 20, 4-amino-1-((2R,5R,8R,14R)-2-(4-aminobutyl)-8-benzyl-5-isobutyl-4,7,10-trioxo-14-phenyl-3,6,9,12-tetraazapentadecan-1-acyl)piperidine-4-carboxylic acid] (H-[Gly(N-(2R-Ph-propyl))][dF][dL][dK]-{Piperidin1yl(4-NH2,4-COOH)}), for which the entries for the “increase range of tenderness threshold compared with the model group” value in data set [3] (0.1 mg/kg i.v.) and in data set [3] (0.3 mg/kg i.v.) were 79.5% and 204.5%, respectively. Also, the figures for the tenderness threshold in data set [3] (0.1 mg/kg i.v. single) and in data set [3] (0.3 mg/kg i.v. single) were 13.7 g and 23.2 g, respectively. In addition, the Purity % in data set [1] (40° C., 5 days) was determined as 97.60%; in data set [1] (4500 Lux, 0 days (initial)), 99.68%; in data set [1] (4500 Lux, 5 days), 97.76%; in data set [1] (4500 Lux, 10 days), 97.72%; in data set [1] (4500 Lux, 20 days), 97.15%. Besides, the “Stability (conclusion in words)” value in data set [1] (illumination and high temperature, 20 days, listed as free state) was “degraded greatly”. In addition, the “pharmacokinetic properties (in words)” value in data set [4] was “good”. In addition, the “solubility (in words)” value in data set [5] was “low”.

As to `CC(C)C[C@@H](NC(=O)[C@@H](Cc1ccccc1)NC(=O)CNC[C@H](C)c1ccccc1)C(=O)N[C@H](CCCCN)C(=O)N1CCC(N)(C(=O)O)CC1` [Embodiment 9, 4-amino-1-((2R,5R,8R,14R)-2-(4-aminobutyl)-8-benzyl-5-isobutyl-4,7,10-trioxo-14-phenyl-3,6,9,12-tetraazapentadecan-1-acyl)piperidine-4-carboxylic acid] (H-[Gly(N-(2R-Ph-propyl))][dF][dL][dK]-{Piperidin1yl(4-NH2,4-COOH)}), the Purity % in data set [1] (4500 Lux, 0 days (initial)) is 96.50%; in data set [1] (4500 Lux, 5 days), 95.57%; in data set [1] (4500 Lux, 10 days), 94.27%; in data set [1] (4500 Lux, 20 days), 94.24%; in data set [2] (4° C., 1 month), 99.51%; in data set [2] (4° C., 3 months), 99.51%. In addition, the Purity % was 98.57% in data set [2] (4° C., 6 months); 99.54% in data set [2] (4° C., initial); 99.52% in data set [2] (setting [7]); 99.50% in data set [2] (setting [8]); 98.54% in data set [2] (setting [9]); 99.54% in data set [2] (setting [10]). In addition, the Purity % in data set [2] (25° C., 60% Rh, 1 month) is 99.46%; in data set [2] (25° C., 60% Rh, 3 months), 99.51%; in data set [2] (25° C., 60% Rh, 6 months), 99.51%; in data set [2] (25° C., 60% Rh, initial) it was 99.54%. Further, the Aspect result was “White” in data set [2] (4° C., 1 month); “White” in data set [2] (4° C., 3 months); “White” in data set [2] (4° C., 6 months); “White” in data set [2] (4° C., initial).

On to `CC(C)C[C@@H](NC(=O)[C@@H](Cc1ccccc1)NC(=O)CNC[C@H](C)c1ccccc1)C(=O)N[C@H](CCCCN)C(=O)N1CCC(N)(C(=O)O)CC1` [Embodiment 15, 4-amino-1-((2R,5R,8R,14R)-2-(4-aminobutyl)-8-benzyl-5-isobutyl-4,7,10-trioxo-14-phenyl-3,6,9,12-tetraazapentadecan-1-acyl)piperidine-4-carboxylic acid] (H-[Gly(N-(2R-Ph-propyl))][dF][dL][dK]-{Piperidin1yl(4-NH2,4-COOH)}), for which the Purity % in data set [1] (4500 Lux, 0 days (initial)) stood at 96.32%; in data set [1] (4500 Lux, 5 days), 96.07%; in data set [1] (4500 Lux, 10 days), 95.62%; in data set [1] (4500 Lux, 20 days), 95.76%; in data set [2] (4° C., 1 month), 99.63%; in data set [2] (4° C., 3 months) it was 99.62%. In addition, the Purity % is listed as 99.66% in data set [2] (4° C., 6 months); 99.64% in data set [2] (4° C., initial); 9.65% in data set [2] (setting [7]); 99.62% in data set [2] (setting [8]); 99.63% in data set [2] (setting [9]); 99.64% in data set [2] (setting [10]). The Purity % in data set [2] (25° C., 60% Rh, 1 month) came out at 99.64%; in data set [2] (25° C., 60% Rh, 3 months), 99.63%; in data set [2] (25° C., 60% Rh, 6 months), 99.64%; in data set [2] (25° C., 60% Rh, initial), 99.64%.
